Tested on: 695427-040-R-J1-PDC complex spheroid viability
Assay: Anticancer human tumor 695427-040-R-J1-PDC patient-derived colon adenocarcinoma cell line growth inhibition [POLQ]
Details: for IC50: curve of first compound; for viability, T/C: stronger effect = lower value
Outline: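 Growth inhibition in 3D: complex spheroids (tumor PDC, HUVEC, MSC) treated with POLQ inhibitor combinations; where Cmax unknown, highest tested concentration 10 microM, except SN-38 at 1 microM.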

[1] = second compound 0.0316 µM, first compound 0.0316 µM
[2] = second compound 0.0316 µM, first compound 0.1 µM
[3] = second compound 0.0316 µM, first compound 0.316 µM
[4] = second compound 0.0316 µM, first compound 1 µM
[5] = second compound 0.0316 µM, first compound 3.16 µM
[6] = second compound 0.0316 µM, first compound 10 µM
[7] = second compound 0.1 µM, first compound 0.0316 µM
[8] = second compound 0.1 µM, first compound 0.1 µM
[9] = second compound 0.1 µM, first compound 0.316 µM
[10] = second compound 0.1 µM, first compound 1 µM
[11] = second compound 0.1 µM, first compound 3.16 µM
[12] = second compound 0.1 µM, first compound 10 µM
[13] = second compound 0.316 µM, first compound 0.0316 µM
[14] = second compound 0.316 µM, first compound 0.1 µM
[15] = second compound 0.316 µM, first compound 0.316 µM
[16] = second compound 0.316 µM, first compound 1 µM
[17] = second compound 0.316 µM, first compound 3.16 µM
[18] = second compound 0.316 µM, first compound 10 µM
[19] = second compound 1 µM, first compound 0.0316 µM
[20] = second compound 1 µM, first compound 0.1 µM
[21] = second compound 1 µM, first compound 0.316 µM
[22] = second compound 1 µM, first compound 1 µM
[23] = second compound 1 µM, first compound 3.16 µM
[24] = second compound 1 µM, first compound 10 µM
[25] = second compound 3.16 µM, first compound 0.0316 µM
[26] = second compound 3.16 µM, first compound 0.1 µM
[27] = second compound 3.16 µM, first compound 0.316 µM
[28] = second compound 3.16 µM, first compound 1 µM
[29] = second compound 3.16 µM, first compound 3.16 µM
[30] = second compound 3.16 µM, first compound 10 µM
[31] = second compound 10 µM, first compound 0.0316 µM
[32] = second compound 10 µM, first compound 0.1 µM
[33] = second compound 10 µM, first compound 0.316 µM
[34] = second compound 10 µM, first compound 1 µM
[35] = second compound 10 µM, first compound 3.16 µM
[36] = second compound 10 µM, first compound 10 µM
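Also: spheroids exposed to compounds for seven days.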
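For viability, T/C in this document: 100% = DMSO vehicle control viability.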

In the case of `C=CC(=O)N1CCN(c2nc(=O)n(-c3c(C)ccnc3C(C)C)c3nc(-c4c(O)cccc4F)c(F)cc23)C(C)C1` (stereo not drawn) + Nc1ccc(C#CCN(C(=O)Cc2ncc(C(F)(F)F)cc2C(F)(F)F)c2ccc(F)cc2)nn1, the IC50 (second compound 0.0316 µM) is reported as > 10 µM, the IC50 (second compound 0.1 µM) is reported as > 10 µM and the IC50 (second compound 0.316 µM) is reported as > 10 µM. The IC50 (second compound 1 µM) was > 10 µM, the IC50 (second compound 3.16 µM) was > 10 µM and the IC50 (second compound 10 µM) was > 10 µM. The viability, T/C [1] was 108%, the viability, T/C [2] was 104% and the viability, T/C [3] was 110%. It also gave a viability, T/C [4] of 111%, a viability, T/C [5] of 110% and a viability, T/C [6] of 104%. For the same molecule, the viability, T/C [7] was 108%, the viability, T/C [8] was 110% and the viability, T/C [9] was 107%. It also gave a viability, T/C [10] of 92.2%, a viability, T/C [11] of 104% and a viability, T/C [12] of 113%. The viability, T/C [13] was 116%, the viability, T/C [14] was 107% and the viability, T/C [15] was 102%. It also gave a viability, T/C [16] of 105%, a viability, T/C [17] of 120% and a viability, T/C [18] of 95.3%. For the same molecule, the viability, T/C [19] was 102%, the viability, T/C [20] was 95.2% and the viability, T/C [21] was 97.9%. It also gave a viability, T/C [22] of 101%, a viability, T/C [23] of 107% and a viability, T/C [24] of 96.9%. For the same molecule, the viability, T/C [25] was 105%, the viability, T/C [26] was 101% and the viability, T/C [27] was 104%. For the same molecule, the viability, T/C [28] was 97.3%, the viability, T/C [29] was 107% and the viability, T/C [30] was 98.3%. The viability, T/C [31] was 97.2%, the viability, T/C [32] was 84.4% and the viability, T/C [33] was 102%. The viability, T/C [34] was 96.3%, the viability, T/C [35] was 121% and the viability, T/C [36] was 97.6%.
In the case of `CC(C)n1c(=O)n(C)c2cnc3cc(F)c(-c4ccc(OCCCN5CCCCC5)nc4)cc3c21` + Nc1ccc(C#CCN(C(=O)Cc2ncc(C(F)(F)F)cc2C(F)(F)F)c2ccc(F)cc2)nn1, the IC50 (second compound 0.0316 µM) is reported as > 10 µM, the IC50 (second compound 0.1 µM) is reported as > 10 µM and the IC50 (second compound 0.316 µM) is reported as > 10 µM. For the same molecule, the IC50 (second compound 1 µM) was > 10 µM, the IC50 (second compound 3.16 µM) was > 10 µM and the IC50 (second compound 10 µM) was > 10 µM. The viability, T/C [1] was 103%, the viability, T/C [2] was 105% and the viability, T/C [3] was 112%. For the same molecule, the viability, T/C [4] was 110%, the viability, T/C [5] was 100% and the viability, T/C [6] was 91.4%. It also gave a viability, T/C [7] of 106%, a viability, T/C [8] of 109% and a viability, T/C [9] of 115%. It also gave a viability, T/C [10] of 107%, a viability, T/C [11] of 108% and a viability, T/C [12] of 81.9%. It also gave a viability, T/C [13] of 114%, a viability, T/C [14] of 112% and a viability, T/C [15] of 103%. The viability, T/C [16] was 110%, the viability, T/C [17] was 106% and the viability, T/C [18] was 91.8%. For the same molecule, the viability, T/C [19] was 102%, the viability, T/C [20] was 98.9% and the viability, T/C [21] was 116%. The viability, T/C [22] was 106%, the viability, T/C [23] was 115% and the viability, T/C [24] was 82.4%. For the same molecule, the viability, T/C [25] was 107%, the viability, T/C [26] was 100% and the viability, T/C [27] was 105%. The viability, T/C [28] was 104%, the viability, T/C [29] was 96% and the viability, T/C [30] was 79.6%. It also gave a viability, T/C [31] of 99.7%, a viability, T/C [32] of 90.1% and a viability, T/C [33] of 101%. It also gave a viability, T/C [34] of 108%, a viability, T/C [35] of 95.4% and a viability, T/C [36] of 88%.
For `CC1COCCN1c1cc(-c2ccnn2C)c2ccnc(-c3ccn[nH]3)c2n1` (stereo not drawn) + Nc1ccc(C#CCN(C(=O)Cc2ncc(C(F)(F)F)cc2C(F)(F)F)c2ccc(F)cc2)nn1, the IC50 (second compound 0.0316 µM) was > 10 µM, the IC50 (second compound 0.1 µM) was > 10 µM and the IC50 (second compound 0.316 µM) was > 10 µM. The IC50 (second compound 1 µM) was > 10 µM, the IC50 (second compound 3.16 µM) was > 10 µM and the IC50 (second compound 10 µM) was > 10 µM. It also gave a viability, T/C [1] of 92.9%, a viability, T/C [2] of 91.8% and a viability, T/C [3] of 72.9%. It also gave a viability, T/C [4] of 66.8%, a viability, T/C [5] of 61.6% and a viability, T/C [6] of 56.3%. It also gave a viability, T/C [7] of 117%, a viability, T/C [8] of 89.1% and a viability, T/C [9] of 74.3%. For the same molecule, the viability, T/C [10] was 66.3%, the viability, T/C [11] was 61.7% and the viability, T/C [12] was 56.2%. For the same molecule, the viability, T/C [13] was 105%, the viability, T/C [14] was 92.7% and the viability, T/C [15] was 71%. The viability, T/C [16] was 62.5%, the viability, T/C [17] was 65% and the viability, T/C [18] was 56.9%. It also gave a viability, T/C [19] of 108%, a viability, T/C [20] of 83.5% and a viability, T/C [21] of 73.6%. For the same molecule, the viability, T/C [22] was 65.6%, the viability, T/C [23] was 59.7% and the viability, T/C [24] was 51.4%. The viability, T/C [25] was 102%, the viability, T/C [26] was 84.3% and the viability, T/C [27] was 70.3%. It also gave a viability, T/C [28] of 61.1%, a viability, T/C [29] of 61.8% and a viability, T/C [30] of 52.2%. The viability, T/C [31] was 92%, the viability, T/C [32] was 80.3% and the viability, T/C [33] was 64.2%. It also gave a viability, T/C [34] of 57.8%, a viability, T/C [35] of 58.5% and a viability, T/C [36] of 58%.
In the case of `COc1ccc([C@@H](O)c2cc(-c3ncnc4cc(N5CCOCC5)ccc34)c(F)cc2Cl)nn1` + Nc1ccc(C#CCN(C(=O)Cc2ncc(C(F)(F)F)cc2C(F)(F)F)c2ccc(F)cc2)nn1, the IC50 (second compound 0.0316 µM) is reported as > 10 µM, the IC50 (second compound 0.1 µM) is reported as > 10 µM and the IC50 (second compound 0.316 µM) is reported as > 10 µM. The IC50 (second compound 1 µM) was > 10 µM, the IC50 (second compound 3.16 µM) was > 10 µM and the IC50 (second compound 10 µM) was > 10 µM. For the same molecule, the viability, T/C [1] was 101%, the viability, T/C [2] was 91.6% and the viability, T/C [3] was 99.2%. It also gave a viability, T/C [4] of 89.7%, a viability, T/C [5] of 84.3% and a viability, T/C [6] of 60.7%. For the same molecule, the viability, T/C [7] was 105%, the viability, T/C [8] was 108% and the viability, T/C [9] was 98.8%. It also gave a viability, T/C [10] of 89.3%, a viability, T/C [11] of 86.5% and a viability, T/C [12] of 54%. The viability, T/C [13] was 108%, the viability, T/C [14] was 106% and the viability, T/C [15] was 99.7%. It also gave a viability, T/C [16] of 89.6%, a viability, T/C [17] of 89.9% and a viability, T/C [18] of 63.9%. It also gave a viability, T/C [19] of 108%, a viability, T/C [20] of 97.5% and a viability, T/C [21] of 91.1%. It also gave a viability, T/C [22] of 91%, a viability, T/C [23] of 86.2% and a viability, T/C [24] of 52.2%. For the same molecule, the viability, T/C [25] was 101%, the viability, T/C [26] was 97.4% and the viability, T/C [27] was 99.2%. The viability, T/C [28] was 90.9%, the viability, T/C [29] was 78.3% and the viability, T/C [30] was 56.2%. For the same molecule, the viability, T/C [31] was 101%, the viability, T/C [32] was 92.5% and the viability, T/C [33] was 90.1%. For the same molecule, the viability, T/C [34] was 89.8%, the viability, T/C [35] was 82.1% and the viability, T/C [36] was 55.1%.

Reference: PubChem BioAssay AID1963840 (Molecular Pharmacology Branch, DTP, NCI, 2024)
